Test results reported in US10072005B2, “4-azaindole derivatives” (EISAI R&D MANAGEMENT CO., LTD., priority 2013, dated 2018).

Biological target: mAChR M1 (Homo sapiens, UniProt P11229)
Experiment: In vitro cellular calcium flux assay, positive allosteric modulation of mAChR M1
Assay type: cell-based
Details: BHK cells expressing mAChR M1; EC20 carbachol; Examples 76-80 and 82-89 slightly modified procedure
Method: Baby hamster kidney cells stably expressing human or rat mAChR M1 to M5 were utilised for primary and selectivity profiling activities. mAChR M2 and M4 cell lines also stably expressed the chimeric Gαqi5 G-protein.
Human mAChR M1, M3, M5 and rat M1 cells were grown in low glucose Dulbecco's Modified Eagle's Medium (DMEM) medium plus heat inactivated 10% fetal bovine serum (HI FBS) and 500 μg/ml hygromycin B^1. Human mAChR M2 and M4 cells were maintained as above with^2 the addition of 500 μg/ml G418 to the media. Cells were maintained in culture at 37° C./5% CO2 and passaged twice weekly by treatment with 0.05% Trypsin/EDTA detachment solution, centrifugation (200 g, 5 min) and re-suspension in fresh media. Following cell expansion, cells were cryopreserved at −80° C. by treatment with 0.05% Trypsin/EDTA detachment solution, centrifugation (200 g, 5 min) and re-suspension of the pellet in freezing media (90% HI FBS/10% DMSO^3) at 15E6 cells/ml^4.
Prior to assaying, cells were prepared by thawing at 37° C. in a water bath, centrifugation (200 g, 5 min) and re-suspension of the pellet in fresh media. 15000 cells per well were seeded in black, clear bottomed 384-well Greiner Bio-One plates in plating medium (DMEM/10% HI FBS) and incubated overnight at 37 C/5% CO2.
On the day of the assay, media was removed from each well and replaced with 50 μl^5 assay buffer (HBSS with 20 mM HEPES and 2.5 mM Probenecid) containing the calcium indicator, Calcium 4 (Molecular Devices). Cells were then incubated at 37° C./5% CO2 for 30 min and at room temperature.
Compound preparation was carried out by generation of 11-point, 1 in 3 serial dilution concentration response curves in 100% DMSO. Compound was then diluted 1 in 65^6 with assay buffer (HBSS with 20 mM HEPES and 2.5 mM Probenecid) prior to the addition of 10 ul^7 to the cells using a Tetra fluorometric imaging plate reader (Molecular Devices)^8. Compound driven increases in intracellular calcium flux was measured as an increase in fluorescence (494Ex, 516Em)^9.
Positive allosteric modulator pEC50 values and antagonist pIC50 values for each compound were then determined. […] The points of modification and the alternate reagents, concentrations or equipment employed in these examples were: ^1200 μg/ml hygromycin B; ^2G418 not added; ^3CELLBANKER 1; ^410E6; ^5 40 μl; ^6 1 in 99; ^7 20 μl; ^8FDSS6000 (Hamamatsu Photonics); ^9(480Ex, 540Em); ^10Spotfire (TIBCO).

Sequence of mAChR M1 (P11229 whole entry, looked up): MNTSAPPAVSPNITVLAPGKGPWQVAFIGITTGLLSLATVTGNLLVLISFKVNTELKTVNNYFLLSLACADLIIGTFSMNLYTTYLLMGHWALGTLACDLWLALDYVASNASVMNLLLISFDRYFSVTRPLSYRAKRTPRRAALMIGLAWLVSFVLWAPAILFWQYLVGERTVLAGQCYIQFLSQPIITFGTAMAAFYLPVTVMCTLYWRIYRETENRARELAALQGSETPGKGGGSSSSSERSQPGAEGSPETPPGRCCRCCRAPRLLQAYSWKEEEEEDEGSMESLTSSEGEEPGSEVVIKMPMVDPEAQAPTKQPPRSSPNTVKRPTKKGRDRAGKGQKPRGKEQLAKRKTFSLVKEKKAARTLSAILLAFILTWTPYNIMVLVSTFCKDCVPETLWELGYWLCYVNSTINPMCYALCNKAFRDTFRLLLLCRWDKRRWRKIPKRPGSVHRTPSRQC

| SMILES | pEC50 for positive allosteric modulation |
| --- | --- |
| Cc1ccnc2c(C(=O)N[C@H]3CCCC[C@@H]3O)cn(Cc3cnn(C)c3)c12 [Example 73, N-((1S,2S)-2-Hydroxycyclohexyl)-7-methyl-1-((1-methyl-1H-pyrazol-4-yl)methyl)-1H-pyrrolo[3,2-b]pyridine-3-carboxamide] | 7.9 |
| Cc1csc(Cn2cc(C(=O)N[C@H]3CCCC[C@@H]3O)c3nccc(Cl)c32)n1 [Example 74, 7-Chloro-N-((1S,2S)-2-hydroxycyclohexyl)-1-((4-methylthiazol-2-yl)methyl)-1H-pyrrolo[3,2-b]pyridine-3-carboxamide] | 6.7 |
| Cc1cnc(Cn2cc(C(=O)N[C@H]3CCCC[C@@H]3O)c3nccc(Cl)c32)s1 [Example 75, 7-Chloro-N-((1S,2S)-2-hydroxycyclohexyl)-1-((5-methylthiazol-2-yl)methyl)-1H-pyrrolo[3,2-b]pyridine-3-carboxamide] | 6.6 |
| Cc1cc(Cn2cc(C(=O)N[C@H]3CCCC[C@@H]3O)c3ncccc32)ccn1 [Example 76, N-((1S,2S)-2-Hydroxycyclohexyl)-1-((2-methylpyridin-4-yl)methyl)-1H-pyrrolo[3,2-b]pyridine-3-carboxamide] | 6.4 |
| O=C(N[C@H]1CCCC[C@@H]1O)c1cn(Cc2ccncc2)c2cccnc12 [Example 77, N-((1S,2S)-2-Hydroxycyclohexyl)-1-(pyridin-4-ylmethyl)-1H-pyrrolo[3,2-b]pyridine-3-carboxamide] | 6.3 |
| Cc1cc(Cn2cc(C(=O)N[C@H]3CCCC[C@@H]3O)c3nccc(Cl)c32)ccn1 [Example 78, 7-Chloro-N-((1S,2S)-2-hydroxycyclohexyl)-1-((2-methylpyridin-4-yl)methyl)-1H-pyrrolo[3,2-b]pyridine-3-carboxamide] | 7.8 |
| O=C(N[C@H]1CCCC[C@@H]1O)c1cn(Cc2ccncc2)c2c(Cl)ccnc12 [Example 79, 7-Chloro-N-((1S,2S)-2-hydroxycyclohexyl)-1-(pyridin-4-ylmethyl)-1H-pyrrolo[3,2-b]pyridine-3-carboxamide] | 7.4 |
| Cc1ccnc(Cn2cc(C(=O)N[C@H]3CCCC[C@@H]3O)c3nccc(Cl)c32)c1 [Example 80, 7-Chloro-N-((1S,2S)-2-hydroxycyclohexyl)-1-((4-methylpyridin-2-yl)methyl)-1H-pyrrolo[3,2-b]pyridine-3-carboxamide] | 7.1 |
| Cc1ccnc2c(C(=O)N[C@H]3CCCC[C@@H]3O)cn(Cc3ccc(Cl)cn3)c12 [Example 81, 1-((5-Chloropyridin-2-yl)methyl)-N-((1S,2S)-2-hydroxycyclohexyl)-7-methyl-1H-pyrrolo[3,2-b]pyridine-3-carboxamide] | 7.2 |
| O=C(N[C@H]1CCOC[C@@H]1O)c1cn(Cc2ccc(F)cc2)c2c(Cl)ccnc12 [Example 88, 7-Chloro-1-(4-fluorobenzyl)-N-((3R,4S)-3-hydroxytetrahydro-2H-pyran-4-yl)-1H-pyrrolo[3,2-b]pyridine-3-carboxamide] | 6.4 |
| O=C(N[C@@H]1CCOC[C@H]1O)c1cn(Cc2ccc(F)cc2)c2c(Cl)ccnc12 [Example 89, 7-Chloro-1-(4-fluorobenzyl)-N-((3S,4R)-3-hydroxytetrahydro-2H-pyran-4-yl)-1H-pyrrolo[3,2-b]pyridine-3-carboxamide] | 6.6 |
| O=C(N[C@H]1CCCC[C@@H]1O)c1cn(Cc2ccc(C(F)(F)F)cc2)c2cccnc12 [Example 90, N-((1S,2S)-2-hydroxycyclohexyl)-1-(4-(trifluoromethyl)benzyl)-1H-pyrrolo[3,2-b]pyridine-3-carboxamide] | 6.6 |
| COc1cc(Cn2cc(C(=O)N[C@H]3CCCC[C@@H]3O)c3ncccc32)ccc1F [Example 91, 1-(4-fluoro-3-methoxybenzyl)-N-((1S,2S)-2-hydroxycyclohexyl)-1H-pyrrolo[3,2-b]pyridine-3-carboxamide] | 6.3 |
| COc1ccc(Cn2cc(C(=O)N[C@H]3CCCC[C@@H]3O)c3ncccc32)c(F)c1 [Example 92, 1-(2-fluoro-4-methoxybenzyl)-N-((1S,2S)-2-hydroxycyclohexyl)-1H-pyrrolo[3,2-b]pyridine-3-carboxamide] | 6.4 |
| COc1ccc(Cn2cc(C(=O)N[C@H]3CCCC[C@@H]3O)c3ncccc32)cc1 [Example 93, N-((1S,2S)-2-hydroxycyclohexyl)-1-(4-methoxybenzyl)-1H-pyrrolo[3,2-b]pyridine-3-carboxamide] | 6.9 |
| O=C(N[C@H]1CCCC[C@@H]1O)c1cn(Cc2cccc(C(F)(F)F)c2)c2cccnc12 [Example 95, N-((1S,2S)-2-hydroxycyclohexyl)-1-(3-(trifluoromethyl)benzyl)-1H-pyrrolo[3,2-b]pyridine-3-carboxamide] | 6.1 |
| Cc1cccc(Cn2cc(C(=O)N[C@H]3CCCC[C@@H]3O)c3ncccc32)c1 [Example 96, N-((1S,2S)-2-hydroxycyclohexyl)-1-(3-methylbenzyl)-1H-pyrrolo[3,2-b]pyridine-3-carboxamide] | 6.7 |
| Cc1ccc(Cn2cc(C(=O)N[C@H]3CCCC[C@@H]3O)c3ncccc32)c(F)c1 [Example 97, 1-(2-fluoro-4-methylbenzyl)-N-((1S,2S)-2-hydroxycyclohexyl)-1H-pyrrolo[3,2-b]pyridine-3-carboxamide] | 6.9 |
| Cc1ccnc2c(C(=O)N[C@H]3CCCC[C@@H]3O)cn(Cc3cc(F)ccc3F)c12 [Example 98, 1-(2,5-difluorobenzyl)-N-((1S,2S)-2-hydroxycyclohexyl)-7-methyl-1H-pyrrolo[3,2-b]pyridine-3-carboxamide] | 7.0 |
| O=C(N[C@H]1CCCC[C@@H]1O)c1cn(Cc2ccc(OC(F)(F)F)cc2)c2c(Cl)ccnc12 [Example 99, 7-chloro-N-((1S,2S)-2-hydroxycyclohexyl)-1-(4-(trifluoromethoxy)benzyl)-1H-pyrrolo[3,2-b]pyridine-3-carboxamide] | 6.7 |
| Cc1ccnc2c(C(=O)N[C@H]3CCCC[C@@H]3O)cn(Cc3ccc(OC(F)(F)F)cc3)c12 [Example 100, N-((1S,2S)-2-hydroxycyclohexyl)-7-methyl-1-(4-(trifluoromethoxy)benzyl)-1H-pyrrolo[3,2-b]pyridine-3-carboxamide] | 6.8 |
| Cc1ccnc2c(C(=O)N[C@H]3CCCC[C@@H]3O)cn(Cc3cc(F)cc(F)c3)c12 [Example 101, 1-(3,5-difluorobenzyl)-N-((1S,2S)-2-hydroxycyclohexyl)-7-methyl-1H-pyrrolo[3,2-b]pyridine-3-carboxamide] | 7.0 |
| COc1cccc(Cn2cc(C(=O)N[C@H]3CCCC[C@@H]3O)c3ncccc32)c1F [Example 102, 1-(2-fluoro-3-methoxybenzyl)-N-((1S,2S)-2-hydroxycyclohexyl)-1H-pyrrolo[3,2-b]pyridine-3-carboxamide] | 6.4 |
| COc1ccnc2c(C(=O)N[C@H]3CCCC[C@@H]3O)cn(Cc3cccc(F)c3F)c12 [Example 104, 1-(2,3-difluorobenzyl)-N-((1S,2S)-2-hydroxycyclohexyl)-7-methoxy-1H-pyrrolo[3,2-b]pyridine-3-carboxamide] | 6.3 |
